Marks after values point to notes of the source that are not given here.
Tests used:
Ehrlich ascites tumor = experiment: Mice bearing Ehrlich ascites tumor, survival time and ascites weight; assay type: in vivo, Kunming mice; settings: 40 mg/kg intraperitoneally every other day, 7 times
Method: Choose mice which are in good health conditions and received Ehrlich ascites tumor injection 8 days ago, disinfect abdominal skin, draw ascites, mix with normal saline to […] for future use. […] In all groups, subcutaneously inject 0.2 ml of the aforementioned suspension at the right anterior lobe. 2 hours after injection, mice in control group and drug groups receive test substance or suspension via intragastric administration once a day, administer continuously until the animal is dying. In positive control group, CTX is administered intraperitoneally once every other day for a total of 7 times. When the animal is dying, sacrifice it by cervical dislocation; the day of dying is calculated as survival time; after death, weigh, exhaust ascites, weigh again, and the difference is the weight of ascites.

S180 = experiment: Mice bearing S180, tumor weight and inhibition rate; assay type: in vivo, Kunming mice
Method: (§1) Choose mice which are in good health conditions and received S180 tumor injection 8 days ago, disinfect abdominal skin, draw ascites, mix with normal saline as ratio of 1:4 (ascites volume:normal saline volume) to make suspension. […] In all groups, subcutaneously inject 0.2 ml of the aforementioned suspension at the right anterior lobe. 2 hours after injection, mice in control group and drug groups receive test substance or suspension via intragastric administration once a day for 14 consecutive days. In positive control group, CTX is administered intraperitoneally once every other day for a total of 7 times.
as §1, with “intragastric or intravenous” for “intragastric”

peritoneal macrophages = experiment: Peritoneal macrophage phagocytosis of normal mice; assay type: in vivo, KM mice; settings: inhibition effect positive control 0.1 g/kg, one subcutaneous injection at day 13
Method: Except that the mice in inhibition effect positive control group receive one dose of subcutaneous injection at day 13, mice in other groups receive test substance or suspension via intragastric administration once a day for 14 consecutive days. At day 13 and 14, apply intraperitoneal injection of 6% starch solution respectively. 1 h after the last administration at day 14, apply intraperitoneal injection of 1 ml of 5% chicken erythrocytes in saline suspension; 30 min later, sacrifice the mice by cervical dislocation, apply intraperitoneal injection of 2 ml saline, and gently massage the abdomen. 1 min later, cut open abdomen, draw 1 ml of peritoneal washings, evenly drop on two slides, place in a wet box, and incubate at 37° C. for 30 min. Rinse in saline, dry, fix with 1:1 acetone-methanol solution, stain with 4% (v/v) Giemsa-PBS for 3 min, rinse with distilled water and dry, perform microscopic examination, and calculate the percentage of phagocytosis.

transplanted tumor S 180 = settings: control group (positive control cyclophosphamide 85 mg/kg daily)
Method: Take Kunming mice, subcutaneously inject 0.2 ml of S180 suspension (about 1×10^6 tumor cells) in a routine way at the right anterior lobe. 24 hours after injection, mice are randomly grouped and numbered. There are 10 mice in the control groups, and 10 mice each in test groups of high dose, middle dose, and low dose. Mice in each group receive drugs via intragastric administration once a day for a total of 14 times. In positive control group, cyclophosphamide (85 mg/kg) is given daily, and the dose, frequency, time are identical with the test groups.

[1] = system: experimental hepatic fibrosis; experiment: Carbon tetrachloride-induced liver fibrosis in rats; assay type: in vivo, SD rats; settings: 3 months
Method: Take 60 SD rats (200-240 g, male), randomly divide into blank control group (0.5% mucilage tragacanth), model control group (0.5% mucilage tragacanth), positive control group (dexamethasone, 1 mg/kg), Paliurus ramosissimus (Lour) Poir. extract (prepared according to Embodiment 1) low-dose group (0.4 g/kg), Paliurus ramosissimus (Lour) Poir. extract middle-dose group (0.8 g/kg), and Paliurus ramosissimus (Lour) Poir. extract high-dose group (1.6 g/kg) with stratification of body weight. Except the blank control group, rats in other groups receive subcutaneous injection of 1 ml/kg of 40% carbon tetrachloride in vegetable oil solution, 2 times a week for 3 consecutive months, while receiving high-fat diet and 5% ethanol aqueous solution. Test substance is given via intragastric administration once daily for 3 consecutive months. On the next day after drug administration, draw abdominal aortic blood, separate plasma, determine the levels of alanine aminotransferase (ALT), III procollagen (PC-III), hyaluronic acid (HA) and laminin (LH); the sacrifice the animals, and take the liver for pathological examination.
Take 60 SD rats (200-240 g, male), randomly divide into blank control group, model control group, positive control group (dexamethasone, 1 mg/kg), Paliurus ramosissimus (Lour) Poir. extract group (prepared according to Embodiment 1, 0.8 g/kg), Polyene phosphatidylcholine group, drug combination group (Paliurus ramosissimus (Lour.) Poir. Extract0.8 g/kg+Polyene phosphatidylcholine1 ml/kg) with stratification of body weight. Except the blank control group, rats in other groups receive subcutaneous injection of 1 ml/kg of 40% carbon tetrachloride in vegetable oil solution, 2 times a week for 3 consecutive months, while receiving high-fat diet and 5% ethanol aqueous solution. Test substance is given via intragastric administration once daily for 3 consecutive months. On the next day after drug administration, draw abdominal aortic blood, separate plasma, determine the levels of alanine aminotransferase (ALT), III procollagen (PC-III), hyaluronic acid (HA) and laminin (LH); the sacrifice the animals, and take the liver for pathological examination.

[2] = system: pylorus ligation induced gastric ulcer; experiment: Pylorus ligation induced experimental gastric ulcer in rats; assay type: in vivo; settings: 60 mg/kg intragastric, 3 days
Text: (§2) In all groups, mice receive test substance via intragastric administration once a day for 3 consecutive days.
as §2

pulmonary fibrosis = experiment: Bleomycin-induced pulmonary fibrosis in rats; assay type: in vivo, SD rats; settings: lung, 30 days
Method: Take 60 SD rats (200-240 g, male), randomly divide into sham operation control group (0.5% mucilage tragacanth), model control group (0.5% mucilage tragacanth), positive control group (dexamethasone, 1 mg/kg), Paliurus ramosissimus (Lour) Poir. extract (prepared according to Embodiment 1) low-dose group (0.4 g/kg), Paliurus ramosissimus (Lour) Poir. extract middle-dose group (0.8 g/kg), and Paliurus ramosissimus (Lour) Poir. extract high-dose group (1.6 g/kg) with stratification of body weight. All animals receive trachea separation under anesthesia by intraperitoneal injection of 10% chloral hydrate (350 mg/kg). Except the sham operation control group, rats in other groups receive injection of 5 mg/kg of bleomycin in 0.4 ml of normal saline solution, while rats in sham operation control group receive normal saline solution only. From the next day after surgery, test substance is given daily for 30 consecutive days. Sacrifice the animals by cervical dislocation, and take the lungs; some organs are homogenized for hydroxyproline content determination, and some are for pathological examination.
Take 60 SD rats (200-240 g, male), randomly divide into sham operation control group, model control group, positive control group (dexamethasone, 1 mg/kg), Paliurus ramosissimus (Lour) Poir. extract group (prepared according to Embodiment 1, 0.8 g/kg. op), Ligustrazine (40 mg/kg, ip)and drug combination group (Paliurus ramosissimus (Lour) Poir. Extract 0.8 g/kg, op; Ligustrazine injection40 mg/kg, ip) with stratification of body weight. All animals receive trachea separation under anesthesia by intraperitoneal injection of 10% chloral hydrate (350 mg/kg). Except the sham operation control group, rats in other groups receive injection of 5 mg/kg of bleomycin in 0.4 ml of normal saline solution, while rats in sham operation control group receive normal saline solution only. The next day after the surgery, give the test substance via intragastric administration or injection administration, test substance is given daily for 30 consecutive days. […]

TNBS induced colitis = experiment: TNBS induced experimental colitis in rats; assay type: in vivo; settings: 2 mg/kg
Method: After the animals are fasted for 24 h, perform anesthesia with sodium pentobarbital. Except the sham operation group, perform coloclysis with TNBS and 40% ethanol, and replicate experimental colitis model; 6 h after model construction, administer test substance. At the day 5 of administration, draw tail vein blood and count leukocyte. At day 6, perform urethane anesthesia, draw abdominal aortic blood and sacrifice the animals by cervical dislocation. Cut 9 cm colon from the anus, in an ice bath, cut intestine along the mesenteric edge, wash out the contents, measure the ulcer area, calculate the percentage of ulcer area; weigh the colon, scrap colonic mucosa, and determine tumor necrosis factor (TNF-α) concentration with ELISA method.

[3] = Table 6, 40 mg/kg intraperitoneally every other day, 7 times
[4] = Table 8, 40 mg/kg intraperitoneally every other day, 7 times
[5] = Table 8, 1 ml/kg once a day, 14 days
[6] = Table 8, 5 mg/kg once a day, 14 days
[7] = Table 11, polyene phosphatidylcholine group (1 ml/kg in the combination)
[8] = Table 11, dexamethasone 1 mg/kg

Molecule: O=P1(N(CCCl)CCCl)NCCCO1 (stereo not shown) [ctx, cyclophosphamide]
- Survival time (Ehrlich ascites tumor): 17.2 ± 2.3 days
- Weight of ascites (Ehrlich ascites tumor): 15.9 ± 1.5
- Tumor inhibition rate (%) (S180; [3]): 70.8%
- Tumor weight (S180; [3]): 0.35 ± 0.58 g
- Tumor inhibition rate (%) (S180; [4]): 63.1%
- Tumor weight (S180; [4]): 0.48 ± 0.41 g
- Percentage of phagocytosis (peritoneal macrophages): 0.12 ± 0.03

Molecule: CC(=O)O[C@H]1[C@H]2O[C@]23[C@@H]2CC[C@]4(O)C[C@@H](O)CC[C@]4(C)[C@H]2CC[C@]3(C)[C@H]1c1ccc(=O)oc1 [Cinobufotalin, cinobufotalin]
- Tumor inhibition rate (%) (S180; [5]): 43.8%
- Tumor weight (S180; [5]): 0.73 ± 0.42 g

Molecule: O=P1(N(CCCl)CCCl)NCCCO1 (stereo not shown) [Control group, cyclophosphamide]
- Tumor inhibition rate (transplanted tumor S 180): 38.45 ± 3.62%

Molecule: CC(=O)O[C@H]1C(=O)[C@@]2(C)[C@H]([C@H](OC(=O)c3ccccc3)[C@]3(O)C[C@H](OC(=O)[C@H](O)[C@@H](NC(=O)c4ccccc4)c4ccccc4)C(C)=C1C3(C)C)[C@]1(OC(C)=O)CO[C@@H]1C[C@@H]2O [Paclitaxel, paclitaxel]
- Tumor inhibition rate (%) (S180; [6]): 34.6%
- Tumor weight (S180; [6]): 0.85 ± 0.38 g

Molecule: Polyene phosphatidylcholine
- ALT (U/L) [1, 7]: 443 ± 130 U/L
- HA [1, 7]: 284 ± 78 µg/L
- LN [1, 7]: 63 ± 18 µg/L
- PC-III [1, 7]: 27.0 ± 4.8 µg/L

Molecule: CNC(=C[N+](=O)[O-])NCCSCc1ccc(CN(C)C)o1 [ranitidine]
- Ulcer index ([2]; Table 19): 1.5 ± 0.4
- Inhibition rate (%) ([2]; Table 19, ulcer): 68.1%
- Ulcer index ([2]; Table 22): 1.8 ± 0.6
- Ulcer inhibition rate (%) ([2]; Table 22): 60.0%

Molecule: Cc1nc(C)c(C)nc1C [Ligustrazine]
- Hydroxyproline content (mg/gpro) (pulmonary fibrosis; Table 12, 40 mg/kg ip daily): 14.6 ± 5.7 mg/gpro

Molecule: C[C@@H]1C[C@H]2[C@@H]3CCC4=CC(=O)C=C[C@]4(C)[C@@]3(F)[C@@H](O)C[C@]2(C)[C@@]1(O)C(=O)CO [Positive Control, dexamethasone]
- ALT (U/L) ([1]; Table 9, dexamethasone 1 mg/kg): 456 ± 98 U/L
- HA ([1]; Table 9, dexamethasone 1 mg/kg): 280 ± 54 µg/L
- LN ([1]; Table 9, dexamethasone 1 mg/kg): 62 ± 20 µg/L
- PC-III ([1]; Table 9, dexamethasone 1 mg/kg): 20.8 ± 3.1 µg/L
- ALT (U/L) [1, 8]: 478 ± 90 U/L
- HA [1, 8]: 285 ± 57 µg/L
- LN [1, 8]: 65 ± 23 µg/L
- PC-III [1, 8]: 20.6 ± 3.8 µg/L
- Hydroxyproline content (mg/gpro) (pulmonary fibrosis; Table 10, dexamethasone 1 mg/kg daily): 13.6 ± 3.3 mg/gpro
- Hydroxyproline content (mg/gpro) (pulmonary fibrosis; Table 12, dexamethasone 1 mg/kg daily): 13.4 ± 3.7 mg/gpro
- Ratio of ulcer area (%) (TNBS induced colitis; colon, day 6): 28.6 ± 10.5 %
- TNF-α (ng/gpro) (TNBS induced colitis; colonic mucosa, ELISA): 73.2 ± 19.6 ng/gpro
- Leukocyte count (10^9/L) (TNBS induced colitis; tail vein blood, day 5): 8.4 ± 0.9** 10^9/L
